# “And” between values parts separate entries of the source, which are not always exact repeats. Identical values can stand only once. Where a SMILES comes first, the peptide text is derived from it. [ ]: non-standard residue; d: D form. Hyp = O=C(O)[C@@H]1C[C@@H](O)CN1
# Legend:
# [1] = PBMC cell counts (total, live, viability; trypan blue, Countess) with and without LPS and test articles (Example 9); format: cell-based, human; conditions: human, PBMCs, 24 hr
# Protocol: (§1) Treatment Human PBMCs were pretreated with YY-101, YDE-011 and YDE-043 or reference compound; Xiidra® at various concentration (ranging from 1 nM to 100 uM) for 2 h before stimulation. An equal volume of 0.5% DMSO was used as a vehicle control. Then, the cells were treated with LPS at 5 ug/ml. The supernatants from treated cells were harvested at 24 h and placed in a 96 well for Luminex cytokine & chemokine profiling using a Luminex 200 multiplex assay (Luminex; R&D system, USA).
# (§2) The main study arm with triplicate wells per group in a 24-well plate: • 1. Blank • 2. PBMC: 0.5% DMSO • 3. PBMC+LPS (5 ug/ml) • 4. PBMC+YY-101 100 uM • 5. PBMC+YY-101 10 uM • 6. PBMC+YY-101 1 uM • 7. PBMC+YY-101 0.1 uM • 8. PBMC+YY-101 0.01 uM • 9. PBMC+LPS (5 ug/ml)+Xiidra®100 uM • 10. PBMC+LPS (5 ug/ml)+Xiidra® 10 uM • 11. PBMC+LPS (5 ug/ml)+Xiidra® 1 uM • 12. PBMC+LPS (5 ug/ml)+Xiidra®0.1 uM • 13. PBMC+LPS (5 ug/ml)+Xiidra®0.01 uM • 14. PBMC+LPS (5 ug/ml)+Xiidra®0.001 uM • 15. PBMC+LPS (5 ug/ml)+YY-101 100 uM • 16. PBMC+LPS (5 ug/ml)+YY-101 10 uM • 17. PBMC+LPS (5 ug/ml)+YY-101 1 uM • 18. PBMC+LPS (5 ug/ml)+YY-101 0.1 uM • 19. PBMC+LPS (5 ug/ml)+YY-101 0.01 uM • 20. PBMC+LPS (5 ug/ml)+YY-101 0.001 uM • 21. PBMC+LPS (5 ug/ml)+YDE-011 100 uM • 22. PBMC+LPS (5 ug/ml)+YDE-011 10 uM • 23. PBMC+LPS (5 ug/ml)+YDE-011 1 uM • 24. PBMC+LPS (5 ug/ml)+YDE-011 0.1 uM • 25. PBMC+LPS (5 ug/ml)+YDE-011 0.01 uM • 26. PBMC+LPS (5 ug/ml)+YDE-011 0.001 uM • 27. PBMC+LPS (5 ug/ml)+YDE-043 100 uM • 28. PBMC+LPS (5 ug/ml)+YDE-043 10 uM • 29. PBMC+LPS (5 ug/ml)+YDE-043 1 uM • 30. PBMC+LPS (5 ug/ml)+YDE-043 0.1 uM • 31. PBMC+LPS (5 ug/ml)+YDE-043 0.01 uM • 32. PBMC+LPS (5 ug/ml)+YDE-043 0.001 uM
# The number of PBMCs was measured after 24 hr of treatment. The culture both and trypan blue were diluted 1:1 and 10 ul was added to Countess cell counting chamber (Thermo fisher, USA). The number of PBMCs was measured using a Countess automated cell counter (Thermo fisher, USA).
# IL-17A = experiment: Example 9 Luminex, LPS hPBMCs: IL-17A; format: cell-based, human
# Protocol: as §1, §2
# Multiplex assay was used to measure 30 cytokines and chemokines. The 1:2, 1:10 and 1:200 diluted cell supernatant and serial dilution of the standard were dispensed into a 96 well plate at 50 ul/well. Then, the pre-mixed cocktail of antibody-coated magnetic beads was dispensed at 50 ul/well and incubated at room temperature for 2 h in a horizontal orbital microplate shaker at 800±500 rpm. The beads were washed using a magnetic device to prevent loss. The biotin-antibody was dispensed in 50 ul of each well and incubated at room temperature for 1 h in a shaker at 800±500 rpm. After washing, streptavidin-PE was added at 50 ul/well and incubated at room temperature for 30 min in a shaker under the same conditions. Finally, after washing, wash buffer (100 ul/well) was added to the plate and incubated in a shaker for 2 min. The Luminex™ 200 setting were set according to the manufacturer's protocol. The data was calculated with a standard five-parameter logistic nonlinear regression analysis of the data (xPonent software 4.2, USA). The levels of cytokine/chemokine are normalized to the live cell counts (1×10^5 cells/mL) and presented as concentrations per mL (pg/mL or ng/mL).
# [2] = PBMC + LPS(5 ug/ml) + test article 0.001 uM, Mean
# [3] = PBMC + LPS(5 ug/ml) + test article 0.001 uM, single replicates (1st, 2nd, 3rd)
# [4] = PBMC + LPS(5 ug/ml) + test article 0.01 uM, Mean
# [5] = PBMC + LPS(5 ug/ml) + test article 0.01 uM, single replicates (1st, 2nd, 3rd)
# [6] = PBMC + LPS(5 ug/ml) + test article 0.1 uM, Mean
# [7] = PBMC + LPS(5 ug/ml) + test article 0.1 uM, single replicates (1st, 2nd, 3rd)
# [8] = PBMC + LPS(5 ug/ml) + test article 1 uM, Mean
# [9] = PBMC + LPS(5 ug/ml) + test article 1 uM, single replicates (1st, 2nd, 3rd)
# [10] = PBMC + LPS(5 ug/ml) + test article 10 uM, Mean
# [11] = PBMC + LPS(5 ug/ml) + test article 10 uM, single replicates (1st, 2nd, 3rd)
# [12] = PBMC + LPS(5 ug/ml) + test article 100 uM, Mean
# [13] = PBMC + LPS(5 ug/ml) + test article 100 uM, single replicates (1st, 2nd, 3rd)
# [14] = PBMC without LPS + test article 0.01 uM, Mean
# [15] = PBMC without LPS + test article 0.01 uM, single replicates (1st, 2nd)
# [16] = PBMC without LPS + test article 0.1 uM, Mean
# [17] = PBMC without LPS + test article 0.1 uM, single replicates (1st, 2nd)
# [18] = PBMC without LPS + test article 1 uM, Mean
# [19] = PBMC without LPS + test article 1 uM, single replicates (1st, 2nd)
# [20] = PBMC without LPS + test article 10 uM, Mean
# [21] = PBMC without LPS + test article 10 uM, single replicates (1st, 2nd)
# [22] = PBMC without LPS + test article 100 uM, Mean
# [23] = PBMC without LPS + test article 100 uM, single replicates (1st, 2nd)
smiles,measurement,setting,value
CC(C)C[C@H](NC(=O)CNC(=O)[C@H](CC(=O)O)NC(=O)[C@H](CCC(N)=O)NC(=O)CNC(=O)[C@@H]1C[C@@H](O)CN1)C(=O)N[C@@H](C)C(=O)NCC(=O)N1CCC[C@H]1C(=O)N[C@@H](CCCCN)C(=O)O [YY-101] (H-[Hyp]GQDGLAGPK-OH; N-terminus and C-terminus assumed),"viability at 24 h, 0.001 µM",[1]; PBMC + LPS(5 ug/ml) + compound 0.001 uM,84.3 ± 2.6%
same,"viability at 24 h, 0.01 µM",[1]; PBMC + LPS(5 ug/ml) + compound 0.01 uM,77.3 ± 5%
same,"viability at 24 h, 0.1 µM",[1]; PBMC + LPS(5 ug/ml) + compound 0.1 uM,75.7 ± 4.7%
same,"viability at 24 h, 1 µM",[1]; PBMC + LPS(5 ug/ml) + compound 1 uM,66.7 ± 5.8%
same,"viability at 24 h, 10 µM",[1]; PBMC + LPS(5 ug/ml) + compound 10 uM,73.7 ± 4.8%
same,"viability at 24 h, 100 µM",[1]; PBMC + LPS(5 ug/ml) + compound 100 uM,76.7 ± 5.2%
same,"viability at 24 h, 0.01 µM","[1]; PBMC + compound 0.01 uM, no LPS",85 ± 2%
same,"viability at 24 h, 0.1 µM","[1]; PBMC + compound 0.1 uM, no LPS",84%
same,"viability at 24 h, 1 µM","[1]; PBMC + compound 1 uM, no LPS",89.5 ± 2.5%
same,"viability at 24 h, 10 µM","[1]; PBMC + compound 10 uM, no LPS",86 ± 1%
same,"viability at 24 h, 100 µM","[1]; PBMC + compound 100 uM, no LPS",86.5 ± 1.5%
same,"Concentration, IL-17A",IL-17A; [2],3.8 pg/mL
same,"MFI, Bead name: IL-17A",IL-17A; [2],2.2
same,"conc/live cell, IL-17A",IL-17A; [2],0.6 pg/10^5
same,"Concentration, IL-17A",IL-17A; [3],4.3 pg/ml (2×) and 2.7 pg/ml
same,"MFI, Bead name: IL-17A",IL-17A; [3],2.5 (2×) and 1.5
same,"conc/live cell, IL-17A",IL-17A; [3],0.8 pg/10^5 and 0.6 pg/10^5 and 0.4 pg/10^5
same,"Concentration, IL-17A",IL-17A; [4],4.9 pg/mL
same,"MFI, Bead name: IL-17A",IL-17A; [4],2.8
same,"conc/live cell, IL-17A",IL-17A; [4],0.8 pg/10^5
same,"Concentration, IL-17A",IL-17A; [5],6.0 pg/ml (2×) and 2.7 pg/ml
same,"MFI, Bead name: IL-17A",IL-17A; [5],3.5 (2×) and 1.5
same,"conc/live cell, IL-17A",IL-17A; [5],0.9 pg/10^5 and 1.0 pg/10^5 and 0.4 pg/10^5
same,"Concentration, IL-17A",IL-17A; [6],4.3 pg/mL
same,"MFI, Bead name: IL-17A",IL-17A; [6],2.5
same,"conc/live cell, IL-17A",IL-17A; [6],0.7 pg/10^5
same,"Concentration, IL-17A",IL-17A; [7],6.0 pg/ml (2×) and 1.0 pg/ml
same,"MFI, Bead name: IL-17A",IL-17A; [7],3.5 (2×) and 0.5
same,"conc/live cell, IL-17A",IL-17A; [7],1.0 pg/10^5 (2×) and 0.2 pg/10^5
same,"Concentration, IL-17A",IL-17A; [8],5.4 pg/mL
same,"MFI, Bead name: IL-17A",IL-17A; [8],3.2
same,"conc/live cell, IL-17A",IL-17A; [8],0.8 pg/10^5
same,"Concentration, IL-17A",IL-17A; [9],4.3 pg/ml (2×) and 7.5 pg/ml
same,"MFI, Bead name: IL-17A",IL-17A; [9],2.5 (2×) and 4.5
same,"conc/live cell, IL-17A",IL-17A; [9],0.7 pg/10^5 and 0.6 pg/10^5 and 1.2 pg/10^5
same,"Concentration, IL-17A",IL-17A; [10],3.3 pg/mL
same,"MFI, Bead name: IL-17A",IL-17A; [10],1.8
same,"conc/live cell, IL-17A",IL-17A; [10],0.5 pg/10^5
same,"Concentration, IL-17A",IL-17A; [11],4.3 pg/ml and 2.7 pg/ml (2×)
same,"MFI, Bead name: IL-17A",IL-17A; [11],2.5 and 1.5 (2×)
same,"conc/live cell, IL-17A",IL-17A; [11],0.7 pg/10^5 and 0.4 pg/10^5 (2×)
same,"Concentration, IL-17A",IL-17A; [12],1.6 pg/mL
same,"MFI, Bead name: IL-17A",IL-17A; [12],0.8
same,"conc/live cell, IL-17A",IL-17A; [12],0.3 pg/10^5
same,"Concentration, IL-17A",IL-17A; [13],1.0 pg/ml (2×) and 2.7 pg/ml
same,"MFI, Bead name: IL-17A",IL-17A; [13],0.5 (2×) and 1.5
same,"conc/live cell, IL-17A",IL-17A; [13],0.2 pg/10^5 (2×) and 0.4 pg/10^5
same,"Concentration, IL-17A",IL-17A; [14],7.5 pg/mL
same,"MFI, Bead name: IL-17A",IL-17A; [14],4.5
same,"conc/live cell, IL-17A",IL-17A; [14],1.5 pg/10^5
same,"Concentration, IL-17A",IL-17A; [15],7.5 pg/mL
same,"MFI, Bead name: IL-17A",IL-17A; [15],4.5
same,"conc/live cell, IL-17A",IL-17A; [15],1.5 pg/10^5 and 1.6 pg/10^5
same,"Concentration, IL-17A",IL-17A; [16],8.3 pg/mL
same,"MFI, Bead name: IL-17A",IL-17A; [16],5.0
same,"conc/live cell, IL-17A",IL-17A; [16],1.5 pg/10^5
same,"Concentration, IL-17A",IL-17A; [17],4.3 pg/mL and 12.2 pg/mL
same,"MFI, Bead name: IL-17A",IL-17A; [17],2.5 and 7.5
same,"conc/live cell, IL-17A",IL-17A; [17],1.0 pg/10^5 and 2.1 pg/10^5
same,"Concentration, IL-17A",IL-17A; [18],5.2 pg/mL
same,"MFI, Bead name: IL-17A",IL-17A; [18],3.0
same,"conc/live cell, IL-17A",IL-17A; [18],0.9 pg/10^5
same,"Concentration, IL-17A",IL-17A; [19],6.0 pg/mL and 4.3 pg/mL
same,"MFI, Bead name: IL-17A",IL-17A; [19],3.5 and 2.5
same,"conc/live cell, IL-17A",IL-17A; [19],1.1 pg/10^5 and 0.8 pg/10^5
same,"Concentration, IL-17A",IL-17A; [20],18.3 pg/mL
same,"MFI, Bead name: IL-17A",IL-17A; [20],11.5
same,"conc/live cell, IL-17A",IL-17A; [20],2.9 pg/10^5
same,"Concentration, IL-17A",IL-17A; [21],22.9 pg/mL and 13.8 pg/mL
same,"MFI, Bead name: IL-17A",IL-17A; [21],14.5 and 8.5
same,"conc/live cell, IL-17A",IL-17A; [21],3.6 pg/10^5 and 2.3 pg/10^5
same,"Concentration, IL-17A",IL-17A; [22],3.5 pg/mL
same,"MFI, Bead name: IL-17A",IL-17A; [22],2.0
same,"conc/live cell, IL-17A",IL-17A; [22],0.5 pg/10^5
same,"Concentration, IL-17A",IL-17A; [23],2.7 pg/mL and 4.3 pg/mL
same,"MFI, Bead name: IL-17A",IL-17A; [23],1.5 and 2.5
same,"conc/live cell, IL-17A",IL-17A; [23],0.4 pg/10^5 and 0.6 pg/10^5
